# Counter-ions that a name gives are not always drawn.
# Biological target: Beta-2-microglobulin (Homo sapiens, UniProt P61769)
# Assay: Fluorescence Assay
# Settings: pH 7.4; 37 °C
# Text: Inhibition of wild type beta-m fibrillogenesis tetracycline congeners and was follow by thioflavin fluorescence assay.
row,IC50 [µM],Structure (SMILES)
1,47,C[C@H]1c2cccc(O)c2C(=O)C2C(=O)[C@]3(O)C(=O)C(C(N)=O)C(=O)[C@@H](N(C)C)[C@@H]3[C@@H](O)[C@@H]21 (some centres not stated)
2,69,"C=C1c2cccc(O)c2C(=O)C2C(=O)[C@]3(O)C(=O)C(C(N)=O)C(=O)[C@@H](N(C)C)[C@@H]3[C@@H](O)[C@H]12 (stereo partly drawn) [(4S,4aR,5S,5aS,12aS)-4-(dimethylamino)-5,10,12a-trihydroxy-1,3,11,12-tetraketo-6-methylene-4a,5,5a,11a-tetrahydro-4H-tetracene-2-carboxamide;hydrochloride]"
3,136,Cc1c2c(c(O)c3c(O)ccc(Cl)c13)C(=O)[C@]1(O)C(=O)C(C(N)=O)C(=O)[C@@H](N(C)C)[C@@H]1C2 (some centres not stated) [Anhydrochlortetracycline]
4,98,C=C1c2c(Cl)ccc(O)c2C(=O)C2C(=O)[C@]3(O)C(=O)C(C(N)=O)C(=O)[C@@H](N(C)C)[C@@H]3[C@@H](O)[C@H]12 (some centres not stated) [Meclocycline]
5,136,CN(C)[C@@H]1C(=O)C(C(=O)NCN2CCCC2)C(=O)[C@@]2(O)C(=O)C3C(=O)c4c(O)cccc4[C@@](C)(O)[C@H]3C[C@@H]12 (some centres not stated) [Rolitetracycline]

row,Structure (SMILES),IC50 [µM]
1,CN(C)[C@H]1C(=O)C(C(N)=O)C(=O)[C@@]2(O)C(=O)C3C(=O)c4c(O)cccc4[C@@](C)(O)C3C(O)C12 (stereo partly drawn) [4-epi-oxytetracycline],49
2,"CN(C)[C@@H]1C(=O)C(C(N)=O)C(=O)[C@@]2(O)C(=O)C3C(=O)c4c(O)cccc4[C@@](C)(O)[C@H]3[C@H](O)[C@@H]12 (stereo partly drawn) [(2E,4S,4aR,5S,5aR,6S,12aS)-2-[azanyl(oxidanyl)methylidene]-4-(dimethylamino)-6-methyl-5,6,10,11,12a-pentakis(oxidanyl)-4,4a,5,5a-tetrahydrotetracene-1,3,12-trione]",63

# From BindingDB's records for doi:10.1074/jbc.M110.178376 (University of Pavia, 2011)
